{"source": "patent US11952586B2", "about": "“B-cell cultivation method” (Hoffmann-La Roche Inc., priority 2017, dated 2024)", "test_system": "single deposited B-cells", "test": "co-cultivation of single deposited B-cells with EL-4 B5 feeder cells; IgG in supernatant by ELISA", "format": "cell-based, rabbit", "conditions": "for frequency per plate of rbIgG-positive wells: 5,000 non-irradiated EL-4 B5 cells per well", "protocol": "Single cell sorted B-cells were cultured in 96-well plates with 200 μl/well EL-4 B5 medium with Pansorbin Cells (SAC) (Calbiochem (Merck), Darmstadt, Deutschland), EL-4 B5 cells (0-5×10^4/well) and rabbit thymocyte supernatant or cytokine mix, respectively, for 7 days at 37° C. in an atmosphere of 5% CO2 in the incubator. B-cell culture supernatants were removed for screening and the cells harvested immediately for variable region gene cloning or frozen at −80° C. in 100 μl RLT buffer (Qiagen, Hilden, Germany).\nA mixture of 0.5 μg/ml of biotinylated mouse anti-rabbit IgG antibody (Sigma-Aldrich) and 0.35 μg/ml anti-rabbit IgG HRP conjugate (Sigma-Aldrich) was transferred to 384 well streptavidin coated microtiter plates (MicroCoat Biotechnologie GmbH). Dilutions of B-cell supernatants in PBS supplemented with 0.5% BSA and 0.05% Tween®-20 were added and incubated for 90 min at RT. After repeated washing (6×) with PBST (phosphate buffered saline with 0.2% Tween buffer the plates were developed with BM Blue® HRP substrate solution and color formation was measured by absorbance at 370 nm. A commercial rabbit IgG (Sigma-Aldrich) was used as a calibration standard.", "key": {"[1]": {"conditions": "PMA 0.048 ng/ml, 3 Gy, 15k/Well"}, "[2]": {"conditions": "PMA 0.048 ng/ml, 4 Gy, 20k/Well"}, "[3]": {"conditions": "PMA 0.048 ng/ml, 5 Gy, 20k/Well"}, "[4]": {"conditions": "PMA 0.048 ng/ml, 8 Gy, 20k/Well"}, "[5]": {"conditions": "PMA 0.048 ng/ml, 50 Gy, 50k/Well"}, "[6]": {"conditions": "PMA 0.109 ng/ml, 3 Gy, 15k/Well"}, "[7]": {"conditions": "PMA 0.109 ng/ml, 4 Gy, 20k/Well"}, "[8]": {"conditions": "PMA 0.109 ng/ml, 5 Gy, 20k/Well"}, "[9]": {"conditions": "PMA 0.109 ng/ml, 8 Gy, 20k/Well"}, "[10]": {"conditions": "PMA 0.109 ng/ml, 50 Gy, 50k/Well"}, "[11]": {"conditions": "PMA 0.25 ng/ml, 50 Gy, 50k/Well"}}, "data": [{"smiles": "CCCCCCCCCCCCCC(=O)O[C@@H]1[C@@H](C)[C@@]2(O)[C@@H](C=C(CO)C[C@]3(O)C(=O)C(C)=C[C@@H]23)[C@@H]2C(C)(C)[C@]12OC(C)=O", "note": "[PMA, phorbol-12-myristate-13-acetate]", "values": [{"measurement": "influence of PMA concentration on frequency of IgG positive wells or productivity", "setting": "4 Gy irradiated EL-4 B5 cells, 0.015 ng/ml to 1.3 ng/ml PMA", "result": "no influence"}, {"measurement": "effect of the addition of PMA on frequency and productivity", "setting": "50 Gy irradiated EL-4 B5 cells", "result": "concentration dependent effect"}, {"measurement": "Average IgG Productivity of all IgG+ wells", "setting": "[1]", "result": 1.405, "unit": "µg/mL"}, {"measurement": "IgG+ Frequency", "setting": "[1]", "result": 48.8, "unit": "% total wells"}, {"measurement": "Average IgG Productivity of all IgG+ wells", "setting": "[2]", "result": 5.465, "unit": "µg/mL"}, {"measurement": "IgG+ Frequency", "setting": "[2]", "result": 73.8, "unit": "% total wells"}, {"measurement": "Average IgG Productivity of all IgG+ wells", "setting": "[3]", "result": 5.769, "unit": "µg/mL"}, {"measurement": "IgG+ Frequency", "setting": "[3]", "result": 71.4, "unit": "% total wells"}, {"measurement": "Average IgG Productivity of all IgG+ wells", "setting": "[4]", "result": 5.739, "unit": "µg/mL"}, {"measurement": "IgG+ Frequency", "setting": "[4]", "result": 84.5, "unit": "% total wells"}, {"measurement": "Average IgG Productivity of all IgG+ wells", "setting": "[5]", "result": 2.821, "unit": "µg/mL"}, {"measurement": "IgG+ Frequency", "setting": "[5]", "result": 14.3, "unit": "% total wells"}, {"measurement": "frequency per plate of rbIgG-positive wells", "setting": "PMA 0.08 ng/ml, 0.031x CM", "result": 39.3, "unit": "% total"}, {"measurement": "frequency per plate of rbIgG-positive wells", "setting": "PMA 0.08 ng/ml, 0.1x CM", "result": 44.0, "unit": "% total"}, {"measurement": "frequency per plate of rbIgG-positive wells", "setting": "PMA 0.08 ng/ml, 0.31x CM", "result": 51.2, "unit": "% total"}, {"measurement": "frequency per plate of rbIgG-positive wells", "setting": "PMA 0.08 ng/ml, 1x CM", "result": 65.5, "unit": "% total"}, {"measurement": "frequency per plate of rbIgG-positive wells", "setting": "PMA 0.08 ng/ml, 2x CM", "result": 65.5, "unit": "% total"}, {"measurement": "Average IgG Productivity of all IgG+ wells", "setting": "[6]", "result": 2.932, "unit": "µg/mL"}, {"measurement": "IgG+ Frequency", "setting": "[6]", "result": 47.6, "unit": "% total wells"}, {"measurement": "Average IgG Productivity of all IgG+ wells", "setting": "[7]", "result": 5.772, "unit": "µg/mL"}, {"measurement": "IgG+ Frequency", "setting": "[7]", "result": 76.2, "unit": "% total wells"}, {"measurement": "Average IgG Productivity of all IgG+ wells", "setting": "[8]", "result": 5.335, "unit": "µg/mL"}, {"measurement": "IgG+ Frequency", "setting": "[8]", "result": 83.3, "unit": "% total wells"}, {"measurement": "Average IgG Productivity of all IgG+ wells", "setting": "[9]", "result": 5.614, "unit": "µg/mL"}, {"measurement": "IgG+ Frequency", "setting": "[9]", "result": 77.4, "unit": "% total wells"}, {"measurement": "Average IgG Productivity of all IgG+ wells", "setting": "[10]", "result": 1.942, "unit": "µg/mL"}, {"measurement": "IgG+ Frequency", "setting": "[10]", "result": 16.7, "unit": "% total wells"}, {"measurement": "frequency per plate of rbIgG-positive wells", "setting": "PMA 0.14 ng/ml, 0.031x CM", "result": 35.7, "unit": "% total"}, {"measurement": "frequency per plate of rbIgG-positive wells", "setting": "PMA 0.14 ng/ml, 0.1x CM", "result": 52.4, "unit": "% total"}, {"measurement": "frequency per plate of rbIgG-positive wells", "setting": "PMA 0.14 ng/ml, 0.31x CM", "result": 54.8, "unit": "% total"}, {"measurement": "frequency per plate of rbIgG-positive wells", "setting": "PMA 0.14 ng/ml, 1x CM", "result": 69.0, "unit": "% total"}, {"measurement": "frequency per plate of rbIgG-positive wells", "setting": "PMA 0.14 ng/ml, 2x CM", "result": 54.8, "unit": "% total"}, {"measurement": "frequency per plate of rbIgG-positive wells", "setting": "PMA 0.25 ng/ml, 0.031x CM", "result": 53.6, "unit": "% total"}, {"measurement": "frequency per plate of rbIgG-positive wells", "setting": "PMA 0.25 ng/ml, 0.1x CM", "result": 54.8, "unit": "% total"}, {"measurement": "frequency per plate of rbIgG-positive wells", "setting": "PMA 0.25 ng/ml, 0.31x CM", "result": 73.8, "unit": "% total"}, {"measurement": "frequency per plate of rbIgG-positive wells", "setting": "PMA 0.25 ng/ml, 1x CM", "result": 65.5, "unit": "% total"}, {"measurement": "frequency per plate of rbIgG-positive wells", "setting": "PMA 0.25 ng/ml, 2x CM", "result": 48.8, "unit": "% total"}, {"measurement": "Average IgG Productivity of all IgG+ wells", "setting": "PMA 0.25 ng/ml, 3 Gy, 15k/Well", "result": 3.094, "unit": "µg/mL"}, {"measurement": "IgG+ Frequency", "setting": "PMA 0.25 ng/ml, 3 Gy, 15k/Well", "result": 47.6, "unit": "% total wells"}, {"measurement": "Average IgG Productivity of all IgG+ wells", "setting": "PMA 0.25 ng/ml, 4 Gy, 20k/Well", "result": 4.61, "unit": "µg/mL"}, {"measurement": "IgG+ Frequency", "setting": "PMA 0.25 ng/ml, 4 Gy, 20k/Well", "result": 75, "unit": "% total wells"}, {"measurement": "Average IgG Productivity of all IgG+ wells", "setting": "PMA 0.25 ng/ml, 5 Gy, 20k/Well", "result": 5.313, "unit": "µg/mL"}, {"measurement": "IgG+ Frequency", "setting": "PMA 0.25 ng/ml, 5 Gy, 20k/Well", "result": 84.5, "unit": "% total wells"}, {"measurement": "Average IgG Productivity of all IgG+ wells", "setting": "PMA 0.25 ng/ml, 8 Gy, 20k/Well", "result": 5.945, "unit": "µg/mL"}, {"measurement": "IgG+ Frequency", "setting": "PMA 0.25 ng/ml, 8 Gy, 20k/Well", "result": 88.1, "unit": "% total wells"}, {"measurement": "Average IgG Productivity of all IgG+ wells", "setting": "[11]", "result": 1.893, "unit": "µg/mL"}, {"measurement": "IgG+ Frequency", "setting": "[11]", "result": 20.2, "unit": "% total wells"}, {"measurement": "frequency per plate of rbIgG-positive wells", "setting": "PMA 0.43 ng/ml, 0.031x CM", "result": 67.9, "unit": "% total"}, {"measurement": "frequency per plate of rbIgG-positive wells", "setting": "PMA 0.43 ng/ml, 0.1x CM", "result": 72.6, "unit": "% total"}, {"measurement": "frequency per plate of rbIgG-positive wells", "setting": "PMA 0.43 ng/ml, 0.31x CM", "result": 71.4, "unit": "% total"}, {"measurement": "frequency per plate of rbIgG-positive wells", "setting": "PMA 0.43 ng/ml, 1x CM", "result": 50.0, "unit": "% total"}, {"measurement": "frequency per plate of rbIgG-positive wells", "setting": "PMA 0.43 ng/ml, 2x CM", "result": 45.2, "unit": "% total"}, {"measurement": "Average IgG Productivity of all IgG+ wells", "setting": "PMA 0.57 ng/ml, 3 Gy, 15k/Well", "result": 6.067, "unit": "µg/mL"}]}]}
